Measured values published in US20030050212A1, “Constituent of washing aid having anti-bacterial or the like component” (priority 2001, published 2003).

Legend:
oral test LD 50 = format: in vivo
Source text: (§1) In actual application, 1 g of MFS 350 anti-bacterial material into 1 kg of raw material can provide a satisfactory result. Of course, the concentration can be adjusted in accordance with the requirements. In experiment, Ag ions oral test LD 50 is larger than 5000 mg1 kg, lethal test LD 50 is larger than 2000 mg1 Kg, which is relatively safe. […] The preferable metallic powder is powdery particle of nanometer in size having an excellent surface ratio. That is, under the same physical condition, a reaction surface is larger; preferably the physical size is 200 nanometer, preferably in the range of 50 to 100 nanometers.

bacteria = experiment: anti-bacterial effect of Ag ions; details: Ag ions at 1 ppm concentration
Source text: Anti-bacterial material, for example silver ions, of high concentration dispersions towards the low concentration area. By means of a physical stirring and agitating, the anti-bacterial is adsorbed onto the fabric under cleaning.

lethal test LD 50 = details: in vivo
Source text: as §1

In the case of `[Ag+]` [Ag ions], the “oral test LD 50” value (oral test LD 50) is reported as > 5000 mg1 kg, the anti-bacterial effect (bacteria) is reported as “possess anti-bacterial effect” and the “lethal test LD 50” value (lethal test LD 50) is reported as > 2000 mg1 Kg.
